molecular target: T1, OCT1 (SLC22A1) (Homo sapiens, UniProt O15245); assay: in vitro; conditions: HEK293 cells that express human OCT1, probe 4-(4-(dimethylamino)styryl)-N-methylpyridinium
T1 sequence (O15245 whole entry): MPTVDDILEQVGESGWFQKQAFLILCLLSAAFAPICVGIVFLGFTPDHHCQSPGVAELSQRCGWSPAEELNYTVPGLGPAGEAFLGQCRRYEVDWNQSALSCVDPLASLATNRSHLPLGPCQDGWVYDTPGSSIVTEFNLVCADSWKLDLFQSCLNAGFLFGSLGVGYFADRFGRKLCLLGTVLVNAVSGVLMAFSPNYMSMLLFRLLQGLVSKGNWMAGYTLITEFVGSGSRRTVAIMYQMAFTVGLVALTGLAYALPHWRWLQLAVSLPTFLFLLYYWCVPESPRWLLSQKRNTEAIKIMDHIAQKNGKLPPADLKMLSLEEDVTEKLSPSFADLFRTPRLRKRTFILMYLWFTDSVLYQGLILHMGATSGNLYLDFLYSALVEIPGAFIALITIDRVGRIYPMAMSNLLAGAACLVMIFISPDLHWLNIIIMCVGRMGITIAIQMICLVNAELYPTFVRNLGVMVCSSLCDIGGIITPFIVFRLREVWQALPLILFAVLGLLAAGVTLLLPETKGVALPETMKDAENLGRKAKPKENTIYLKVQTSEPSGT

| Compound | inhibition at 100 µM [%] |
| --- | --- |
| CCOC(=O)C1=C(C)NC(C)=C(C(=O)OC)C1c1cccc(Cl)c1Cl (stereo not given) [FELODIPINE] | 15.5 |
| Cc1nc2n(c(=O)c1CCN1CCC(c3noc4cc(F)ccc34)CC1)CCCC2 [RISPERIDONE] | 39.3 |
| CC(C(=O)O)c1cccc(C(=O)c2ccccc2)c1 (stereo not given) [KETOPROFEN] | -9.4 |
| N[C@H]1C(O)O[C@H](CO)[C@@H](O)[C@@H]1O (stereo not given in full) [GLUCOSAMINE] | 13.9 |
| C=C[C@H]1C[N@@]2CC[C@H]1C[C@@H]2[C@@H](O)c1ccnc2ccc(OC)cc12 [QUINIDINE] | 62.9 |
| NCC(CC(=O)O)c1ccc(Cl)cc1 (stereo not given) [BACLOFEN] | 20.7 |
| N[C@@H](Cc1cc(I)c(Oc2cc(I)c(O)c(I)c2)c(I)c1)C(=O)O [LEVOTHYROXINE] | 12.7 |
| CCC1(c2ccccc2)C(=O)NC(=O)NC1=O [PHENOBARBITAL] | -6 |
| OC[C@@H](O)[C@@H](O)[C@H](O)[C@H](O)CO [MANNITOL] | -1.4 |
| N[C@@H](Cc1ccc(O)c(O)c1)C(=O)O [LEVODOPA] | 21.7 |
| CC[C@@H]1C(=O)OC[C@@H]1Cc1cncn1C [PILOCARPINE] | 17 |
| CC(C)(C)NC[C@H](O)COc1nsnc1N1CCOCC1 [TIMOLOL] | 39 |
| CN1C[C@H](C(=O)N[C@]2(C)O[C@@]3(O)[C@@H]4CCCN4C(=O)[C@H](Cc4ccccc4)N3C2=O)C=C2c3cccc4[nH]cc(c34)C[C@H]21 [ERGOTAMINE] | 16.7 |
| O=C1CC[C@@]2(O)[C@H]3Cc4ccc(O)c5c4[C@@]2(CCN3CC2CC2)[C@H]1O5 [NALTREXONE] | 40.3 |
| NS(=O)(=O)c1cc(C(=O)O)c(NCc2ccco2)cc1Cl [FUROSEMIDE] | 11.7 |
| CC(C)NC[C@H](O)c1ccc(O)c(O)c1 | 15.6 |
| NC(=O)N1c2ccccc2C=Cc2ccccc21 [CARBAMAZEPINE] | 8.4 |
| Cn1c(=O)c2c(ncn2C)n(C)c1=O [CAFFEINE] | -1.4 |
| CC(C)NCC(O)c1cc(O)cc(O)c1 (stereo not given) [METAPROTERENOL] | 12.6 |
| C[C@H]1O[C@H](O[C@H]2[C@H](O)[C@@H](O)[C@@H](O[C@H]3[C@H](O)[C@@H](O)C(O)O[C@@H]3CO)O[C@@H]2CO)[C@H](O)[C@@H](O)[C@@H]1N[C@H]1C=C(CO)[C@@H](O)[C@H](O)[C@H]1O (stereo not given in full) [ACARBOSE] | 3.9 |
| CO[C@H]1/C=C/O[C@@]2(C)Oc3c(C)c(O)c4c(O)c(c(/C=N/N5CCN(C)CC5)c(O)c4c3C2=O)NC(=O)/C(C)=C\C=C\[C@H](C)[C@H](O)[C@@H](C)[C@@H](O)[C@@H](C)[C@H](OC(C)=O)[C@@H]1C [RIFAMPIN] | 26.2 |
| CN(C)[C@@H]1C(O)=C(C(N)=O)C(=O)[C@@]2(O)C(O)=C3C(=O)c4c(O)cccc4[C@@](C)(O)[C@H]3C[C@@H]12 [TETRACYCLINE] | 10.4 |

| Compound | inhibition at 100 µM [%] |
| --- | --- |
| N=C(N)c1ccc(CNC(=O)[C@@H]2CCN2C(=O)[C@H](NCC(=O)O)C2CCCCC2)cc1 | -0.2 |
| COc1cc2c(c(OC)c1OC)-c1ccc(OC)c(=O)cc1[C@@H](NC(C)=O)CC2 [COLCHICINE] | 31.9 |
| CCS(=O)(=O)CCn1c([N+](=O)[O-])cnc1C [TINIDAZOLE] | 14.2 |
| CC(C)C(=O)Nc1ccc([N+](=O)[O-])c(C(F)(F)F)c1 [FLUTAMIDE] | 34.1 |
| CC1(C)S[C@@H]2[C@H](NC(=O)[C@H](N)c3ccccc3)C(=O)N2[C@H]1C(=O)O [AMPICILLIN] | 20.3 |
| CN1CCN2c3ccccc3Cc3ccccc3C2C1 (stereo not given) [MIANSERIN] | 48.4 |
| Cc1ccccc1C(OCCN(C)C)c1ccccc1 (stereo not given) [ORPHENADRINE] | 77.6 |
| NCC1(CC(=O)O)CCCCC1 [GABAPENTIN] | 15.1 |
| COc1ccc(Cc2nccc3cc(OC)c(OC)cc23)cc1OC [PAPAVERINE] | 66.3 |
| COc1cc(C(O)CN)ccc1O (racemic) [NORMETANEPHRINE] | -2.4 |
| NCCS [CYSTEAMINE] | 2.4 |
| CC(=O)N1CCN(c2ccc(OCC3COC(Cn4ccnc4)(c4ccc(Cl)cc4Cl)O3)cc2)CC1 (stereo not given) [KETOCONAZOLE] | 82.3 |
| CN1C(=O)CN=C(c2ccccc2)c2cc(Cl)ccc21 [DIAZEPAM] | 5 |
| CC(C)NCC(O)c1ccc(NS(C)(=O)=O)cc1 (stereo not given) [SOTALOL] | 31.8 |
| Nc1nc2c(ncn2COCCO)c(=O)[nH]1 [ACYCLOVIR] | -3.9 |
| CCCC(CCC)C(=O)O [VALPROIC ACID] | 19.6 |
| CC[C@H](C)C(=O)O[C@H]1C[C@H](O)C=C2C=C[C@H](C)[C@H](CC[C@@H](O)C[C@@H](O)CC(=O)O)[C@H]21 [PRAVASTATIN] | 5 |
| CCCC1O[C@@H]2C[C@H]3[C@@H]4CCC5=CC(=O)C=C[C@]5(C)[C@H]4[C@@H](O)C[C@]3(C)[C@]2(C(=O)CO)O1 (stereo not given in full) [BUDESONIDE] | 38.2 |
| CCCN(CCC)S(=O)(=O)c1ccc(C(=O)O)cc1 [PROBENECID] | -8.9 |
| CN1CCN(C2=Nc3cc(Cl)ccc3Nc3ccccc32)CC1 [CLOZAPINE] | 47.5 |
| CC1=C(CC(=O)O)c2cc(F)ccc2/C1=C\c1ccc([S+](C)[O-])cc1 (stereo not given) | 27.1 |
| O=c1[nH]cc(F)c(=O)[nH]1 [FLUOROURACIL] | 0.9 |

| Compound | inhibition at 100 µM [%] |
| --- | --- |
| O=C1CC2(CCCC2)CC(=O)N1CCCCN1CCN(c2ncccn2)CC1 [BUSPIRONE] | 24.7 |
| CC(=O)Oc1ccccc1C(=O)O [ASPIRIN] | -5.7 |
| COc1cc2nc(N3CCN(C(=O)C4COc5ccccc5O4)CC3)nc(N)c2cc1OC (stereo not given) [DOXAZOSIN] | 85.6 |
| CCN(CC)CC#CCOC(=O)C(O)(c1ccccc1)C1CCCCC1 (stereo not given) [OXYBUTYNIN] | 75.7 |
| CC(C)(C)NC(=O)[C@@H]1CN(Cc2cccnc2)CCN1C[C@@H](O)C[C@@H](Cc1ccccc1)C(=O)N[C@H]1c2ccccc2C[C@H]1O | 43 |
| Oc1ncnc2[nH]ncc12 [ALLOPURINOL] | 7.7 |
| CC(C)OC(=O)C(C)(C)Oc1ccc(C(=O)c2ccc(Cl)cc2)cc1 [FENOFIBRATE] | 0.2 |
| CC1COc2c(N3CCN(C)CC3)c(F)cc3c(=O)c(C(=O)O)cn1c23 (stereo not given) [OFLOXACIN] | 21.1 |
| CN(Cc1cnc2nc(N)nc(N)c2n1)c1ccc(C(=O)N[C@@H](CCC(=O)O)C(=O)O)cc1 [METHOTREXATE] | 26.3 |
| CCN(CC)CCNC(=O)c1ccc(N)cc1 [PROCAINAMIDE] | 26.5 |
| CC[C@]1(O)C[C@@H]2CN(CCc3c([nH]c4ccccc34)[C@@](C(=O)OC)(c3cc4c(cc3OC)N(C)[C@H]3[C@@](O)(C(=O)OC)[C@H](OC(C)=O)[C@]5(CC)C=CCN6CC[C@]43[C@@H]65)C2)C1 [VINBLASTINE] | 1.9 |
| CC(=O)S[C@@H]1CC2=CC(=O)CC[C@]2(C)[C@H]2CC[C@@]3(C)[C@@H](CC[C@@]34CCC(=O)O4)[C@H]12 [SPIRONOLACTONE] | 87.9 |
| CC(C)(C)c1ccc(C(O)CCCN2CCC(C(O)(c3ccccc3)c3ccccc3)CC2)cc1 (stereo not given) [TERFENADINE] | 65.4 |
| C[C@]12CC[C@@H]3c4ccc(O)cc4CC[C@H]3[C@@H]1CC[C@@H]2O [ESTRADIOL] | 83.5 |
| COC(=O)CCc1ccc(OCC(O)CNC(C)C)cc1 (stereo not given) [ESMOLOL] | 31.2 |
| CN[C@H](CC(C)C)C(=O)N[C@H]1C(=O)N[C@@H](CC(N)=O)C(=O)N[C@H]2C(=O)N[C@H]3C(=O)N[C@H](C(=O)N[C@H](C(=O)O)c4cc(O)cc(O)c4-c4cc3ccc4O)[C@H](O)c3ccc(c(Cl)c3)Oc3cc2cc(c3O[C@@H]2O[C@H](CO)[C@@H](O)[C@H](O)[C@H]2O[C@H]2C[C@](C)(N)[C@H](O)[C@H](C)O2)Oc2ccc(cc2Cl)[C@H]1O [VANCOMYCIN] | 7.1 |
| CC/C(=C(\c1ccccc1)c1ccc(OCCN(C)C)cc1)c1ccccc1 [TAMOXIFEN] | 72.1 |
| Nc1nc2ncc(CNc3ccc(C(=O)N[C@@H](CCC(=O)O)C(=O)O)cc3)nc2c(=O)[nH]1 [FOLIC ACID] | 33 |
| CCCC(=O)Nc1ccc(OCC(O)CNC(C)C)c(C(C)=O)c1 (stereo not given) [ACEBUTOLOL] | 40.9 |
| C=C[C@H]1C[N@@]2CC[C@H]1C[C@H]2[C@H](O)c1ccnc2ccc(OC)cc12 [QUININE] | 60.2 |

same assay, conditions: hek293

| Compound | inhibition at 100 µM [%] |
| --- | --- |
| NC(N)=Nc1nc(CSCCC(N)=NS(N)(=O)=O)cs1 [FAMOTIDINE] | 13.9 |
| COc1cc(Cc2cnc(N)nc2N)cc(OC)c1OC [TRIMETHOPRIM] | 58.1 |
| CNC[C@H](O)c1ccc(O)c(O)c1 [EPINEPHRINE] | 29.1 |
| CC(=O)[C@H]1CC[C@H]2[C@@H]3CCC4=CC(=O)CC[C@]4(C)[C@H]3CC[C@]12C [PROGESTERONE] | 55.7 |
| Cn1cnc([N+](=O)[O-])c1Sc1ncnc2nc[nH]c12 [AZATHIOPRINE] | 4.2 |
| NNc1nncc2ccccc12 [HYDRALAZINE] | 6.5 |
| CC(C)c1cccc(C(C)C)c1O [PROPOFOL] | -17.9 |
| NCCc1c[nH]cn1 [HISTAMINE] | 4.1 |
| CN/C(=N/CCSCc1nc[nH]c1C)NC#N [CIMETIDINE] | 8.1 |
| OC(CCN1CCCCC1)(c1ccccc1)C1CCCCC1 (stereo not given) [TRIHEXYPHENIDYL] | 79.4 |
| O=P1(N(CCCl)CCCl)NCCCO1 (stereo not given) [CYCLOPHOSPHAMIDE ANHYDROUS] | 4.7 |
